According to PMC8438848 (Journal for Immunotherapy of Cancer, 2021):
Ends that are not written are not given here.

Tests used:
HLA-B27:05 = HLA-B27:05 (Homo sapiens, UniProt P01889, D138H/D201E/E176V/E204Q/G107R/H137Y/K202T/N104T/N87E/Q56L/Q94K/R106L/R155S/R180L/S101D/S121N/S48T/Y140D/Y33H/Y91C); assay: IC50 in vitro measurement, peptide exchange assay with fluorescence anisotropy; assay type: binding
HLA-A03:01 = HLA-A03:01 (Homo sapiens, UniProt P04439); assay: as above

Sequence | IC50 (HLA-B27:05) [nM] | IC50 (HLA-A03:01) [nM]
GRIAFFLKY [SYTL4^S363F] | 214.7 ± 1.8 | –
GRIAFSLKY [SYTL4^WT] | 97.3 ± 2.1 | –
KLILWRGLK [NCAPG2^P333L] | – | 202.9 ± 1.03
KPILWRGLK [NCAPG2^WT] | – | 4490
RLFLGLAIK [KIF2C^P13L] | – | 237.4 ± 2
RLFPGLAIK [KIF2C^WT] | – | 146.2 ± 1.1
